{
  "source": "the supplement of paper PMC11208160",
  "data": [
    {"assay": "recombinant UMI read abundance after kanamycin selection (control-corrected) (log10(CPM+1)); higher = more efficient recombination; extreme values may be limits of the assay; sequences stand for … in AGTGCAGAGAAAATCGGCCAGTTTTCTCTGCCTGCAGTCCGCATGCCGTGGGACCCCTTGGGTTCTAACCTGTTGCCTAGATTTATGCAGCGGACTGCCTTTCTCCCAAAGTGATAAACCGG…AGGTTGGTTTCACT; site = the 11-nt donor", "method_in_brief": "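Values are reported as log10(CPM+1), obtained by converting sequencing counts to CPM, averaging replicates and scaling by control-derived factors. The counts came from recombinant UMIs amplified by PCR across the donor–target junction. These UMIs came from a pooled Escherichia coli screen of donor and donor-binding-loop pairs for the IS621 bridge recombinase, plated with IPTG (0.07 mM) plus kanamycin or left unselected, in two replicates each.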", "values": [
      {"sequence": "CTTTTGGCATGGACCGGTTTTCCCGGTAATCCGTATTTGCT (site CATTTGGCTAG)", "recombinant UMI read abundance (log10)": 0},
      {"sequence": "CTTTTGGCATGGACCGGTTTTCCCGGTAATCCGTATTTGCT (site CCTTTGGCTAG)", "recombinant UMI read abundance (log10)": 0},
      {"sequence": "CTTTTGGCATGGACCGGTTTTCCCGGTAATCCGTATTTGCT (site CGTTTGGCTAG)", "recombinant UMI read abundance (log10)": 0.00381},
      {"sequence": "CTTTTGGCATGGACCGGTTTTCCCGGTAATCCGTATTTGCT (site CTTTTGGCTAG)", "recombinant UMI read abundance (log10)": 0},
      {"sequence": "GAAAACGCATGGACCGGTTTTCCCGGTAATCCGTATTTGAA (site GAAAACGCTTT)", "recombinant UMI read abundance (log10)": 2.16},
      {"sequence": "GAAAAGTCATGGACCGGTTTTCCCGGTAATCCGTATTTGAA (site GAAAAGTCTTT)", "recombinant UMI read abundance (log10)": 2.84},
      {"sequence": "GAAAATTCATGGACCGGTTTTCCCGGTAATCCGTATTTGTT (site GAAAATTCTAA)", "recombinant UMI read abundance (log10)": 0.97},
      {"sequence": "GAAAATTCATGGACCGGTTTTCCCGGTAATCCGTATTTGTT (site GAACATTCTAA)", "recombinant UMI read abundance (log10)": 0},
      {"sequence": "GAAAATTCATGGACCGGTTTTCCCGGTAATCCGTATTTGTT (site GAAGATTCTAA)", "recombinant UMI read abundance (log10)": 0.507},
      {"sequence": "GAAAATTCATGGACCGGTTTTCCCGGTAATCCGTATTTGTT (site GAATATTCTAA)", "recombinant UMI read abundance (log10)": 1.79},
      {"sequence": "GAAACACCATGGACCGGTTTTCCCGGTAATCCGTATTTGTT (site GAAACACCTAA)", "recombinant UMI read abundance (log10)": 0.0036},
      {"sequence": "GAAACCTCATGGACCGGTTTTCCCGGTAATCCGTATTTGTG (site GAAACCTCTCA)", "recombinant UMI read abundance (log10)": 0.406},
      {"sequence": "GAAACGTCATGGACCGGTTTTCCCGGTAATCCGTATTTGGC (site GAAACGTCTGC)", "recombinant UMI read abundance (log10)": 2.01},
      {"sequence": "GAAAGCTCATGGACCGGTTTTCCCGGTAATCCGTATTTGCG (site GAAAGCTCTCG)", "recombinant UMI read abundance (log10)": 2.77},
      {"sequence": "GAAAGGCCATGGACCGGTTTTCCCGGTAATCCGTATTTGCA (site GAAAGGCCTTG)", "recombinant UMI read abundance (log10)": 0},
      {"sequence": "GAAAGGCCATGGACCGGTTTTCCCGGTAATCCGTATTTGCA (site GAACGGCCTTG)", "recombinant UMI read abundance (log10)": 0},
      {"sequence": "GAAAGGCCATGGACCGGTTTTCCCGGTAATCCGTATTTGCA (site GAAGGGCCTTG)", "recombinant UMI read abundance (log10)": 0},
      {"sequence": "GAAAGGCCATGGACCGGTTTTCCCGGTAATCCGTATTTGCA (site GAATGGCCTTG)", "recombinant UMI read abundance (log10)": 0},
      {"sequence": "GAAAGTCCATGGACCGGTTTTCCCGGTAATCCGTATTTGTA (site AAAAGTCCTTA)", "recombinant UMI read abundance (log10)": 0},
      {"sequence": "GAAAGTCCATGGACCGGTTTTCCCGGTAATCCGTATTTGTA (site CAAAGTCCTTA)", "recombinant UMI read abundance (log10)": 0.821},
      {"sequence": "GAAAGTCCATGGACCGGTTTTCCCGGTAATCCGTATTTGTA (site GAAAGTCCTTA)", "recombinant UMI read abundance (log10)": 0.0817},
      {"sequence": "GAAAGTCCATGGACCGGTTTTCCCGGTAATCCGTATTTGTA (site TAAAGTCCTTA)", "recombinant UMI read abundance (log10)": 1.01},
      {"sequence": "GAACGGACATGGACCGGTTTTCCCGGTAATCCGTATTTGAA (site GAACGGACTTT)", "recombinant UMI read abundance (log10)": 0.965},
      {"sequence": "GAACTATCATGGACCGGTTTTCCCGGTAATCCGTATTTGCC (site GAACTATCTGG)", "recombinant UMI read abundance (log10)": 1.78},
      {"sequence": "GAACTCACATGGACCGGTTTTCCCGGTAATCCGTATTTGAT (site GAACTCACTAT)", "recombinant UMI read abundance (log10)": 2.08},
      {"sequence": "GAACTCACATGGACCGGTTTTCCCGGTAATCCGTATTTGAT (site GACCTCACTAT)", "recombinant UMI read abundance (log10)": 0.375},
      {"sequence": "GAACTCACATGGACCGGTTTTCCCGGTAATCCGTATTTGAT (site GAGCTCACTAT)", "recombinant UMI read abundance (log10)": 0},
      {"sequence": "GAACTCACATGGACCGGTTTTCCCGGTAATCCGTATTTGAT (site GATCTCACTAT)", "recombinant UMI read abundance (log10)": 0.263},
      {"sequence": "GAAGAAGCATGGACCGGTTTTCCCGGTAATCCGTATTTGAG (site GAAGAAGCTCT)", "recombinant UMI read abundance (log10)": 2.53},
      {"sequence": "GAAGAATCATGGACCGGTTTTCCCGGTAATCCGTATTTGTT (site GAAGAATCTAA)", "recombinant UMI read abundance (log10)": 3.34},
      {"sequence": "GAAGAATCATGGACCGGTTTTCCCGGTAATCCGTATTTGTT (site GAAGACTCTAA)", "recombinant UMI read abundance (log10)": 1.41},
      {"sequence": "GAAGAATCATGGACCGGTTTTCCCGGTAATCCGTATTTGTT (site GAAGAGTCTAA)", "recombinant UMI read abundance (log10)": 1.59},
      {"sequence": "GAAGAATCATGGACCGGTTTTCCCGGTAATCCGTATTTGTT (site GAAGATTCTAA)", "recombinant UMI read abundance (log10)": 0},
      {"sequence": "GAAGACCCATGGACCGGTTTTCCCGGTAATCCGTATTTGCG (site GAAGACCCTCG)", "recombinant UMI read abundance (log10)": 0.691},
      {"sequence": "GAAGAGGCATGGACCGGTTTTCCCGGTAATCCGTATTTGTA (site GAAGAGGCTTA)", "recombinant UMI read abundance (log10)": 1.64},
      {"sequence": "GAAGATCCATGGACCGGTTTTCCCGGTAATCCGTATTTGTT (site GAAGATACTAA)", "recombinant UMI read abundance (log10)": 0.0059},
      {"sequence": "GAAGATCCATGGACCGGTTTTCCCGGTAATCCGTATTTGTT (site GAAGATCCTAA)", "recombinant UMI read abundance (log10)": 1.25},
      {"sequence": "GAAGATCCATGGACCGGTTTTCCCGGTAATCCGTATTTGTT (site GAAGATGCTAA)", "recombinant UMI read abundance (log10)": 0.00882},
      {"sequence": "GAAGATCCATGGACCGGTTTTCCCGGTAATCCGTATTTGTT (site GAAGATTCTAA)", "recombinant UMI read abundance (log10)": 0.0204},
      {"sequence": "GAAGATTCATGGACCGGTTTTCCCGGTAATCCGTATTTGAT (site GAAGATTCTAA)", "recombinant UMI read abundance (log10)": 0.773},
      {"sequence": "GAAGATTCATGGACCGGTTTTCCCGGTAATCCGTATTTGAT (site GAAGATTCTAC)", "recombinant UMI read abundance (log10)": 0.00538},
      {"sequence": "GAAGATTCATGGACCGGTTTTCCCGGTAATCCGTATTTGAT (site GAAGATTCTAG)", "recombinant UMI read abundance (log10)": 0},
      {"sequence": "GAAGATTCATGGACCGGTTTTCCCGGTAATCCGTATTTGAT (site GAAGATTCTAT)", "recombinant UMI read abundance (log10)": 2.48},
      {"sequence": "GAAGATTCATGGACCGGTTTTCCCGGTAATCCGTATTTGTG (site GAAGATTCTAA)", "recombinant UMI read abundance (log10)": 1.55},
      {"sequence": "GAAGATTCATGGACCGGTTTTCCCGGTAATCCGTATTTGTG (site GAAGATTCTCA)", "recombinant UMI read abundance (log10)": 2.81},
      {"sequence": "GAAGATTCATGGACCGGTTTTCCCGGTAATCCGTATTTGTG (site GAAGATTCTGA)", "recombinant UMI read abundance (log10)": 0},
      {"sequence": "GAAGATTCATGGACCGGTTTTCCCGGTAATCCGTATTTGTG (site GAAGATTCTTA)", "recombinant UMI read abundance (log10)": 1.24},
      {"sequence": "GAAGGACCATGGACCGGTTTTCCCGGTAATCCGTATTTGCG (site GAAGGACCTCG)", "recombinant UMI read abundance (log10)": 0},
      {"sequence": "GAAGGGACATGGACCGGTTTTCCCGGTAATCCGTATTTGCA (site GAAGGGACTTG)", "recombinant UMI read abundance (log10)": 2.41},
      {"sequence": "GAAGGTGCATGGACCGGTTTTCCCGGTAATCCGTATTTGAA (site GAAGGTGCTTT)", "recombinant UMI read abundance (log10)": 2.08},
      {"sequence": "GAAGTCTCATGGACCGGTTTTCCCGGTAATCCGTATTTGGT (site GAAGTCTCTAC)", "recombinant UMI read abundance (log10)": 2.53},
      {"sequence": "GAATACACATGGACCGGTTTTCCCGGTAATCCGTATTTGCG (site GAATACACTCG)", "recombinant UMI read abundance (log10)": 2.66},
      {"sequence": "GAATACTCATGGACCGGTTTTCCCGGTAATCCGTATTTGGA (site GAATACTCTTC)", "recombinant UMI read abundance (log10)": 2.53},
      {"sequence": "GAATAGACATGGACCGGTTTTCCCGGTAATCCGTATTTGCC (site GAATAGACTGG)", "recombinant UMI read abundance (log10)": 2.33},
      {"sequence": "GAATAGACATGGACCGGTTTTCCCGGTAATCCGTATTTGCC (site GCATAGACTGG)", "recombinant UMI read abundance (log10)": 1.73},
      {"sequence": "GAATAGACATGGACCGGTTTTCCCGGTAATCCGTATTTGCC (site GGATAGACTGG)", "recombinant UMI read abundance (log10)": 1.44},
      {"sequence": "GAATAGACATGGACCGGTTTTCCCGGTAATCCGTATTTGCC (site GTATAGACTGG)", "recombinant UMI read abundance (log10)": 2.39},
      {"sequence": "GAATAGTCATGGACCGGTTTTCCCGGTAATCCGTATTTGGG (site GAATAGTCTCC)", "recombinant UMI read abundance (log10)": 1.13},
      {"sequence": "GAATGAACATGGACCGGTTTTCCCGGTAATCCGTATTTGGT (site GAATGAACTAC)", "recombinant UMI read abundance (log10)": 1.55},
      {"sequence": "GAATGGCCATGGACCGGTTTTCCCGGTAATCCGTATTTGCT (site GAATGGCCTAG)", "recombinant UMI read abundance (log10)": 0.0235},
      {"sequence": "GAATGGCCATGGACCGGTTTTCCCGGTAATCCGTATTTGCT (site GAATGGCCTCG)", "recombinant UMI read abundance (log10)": 0.0255},
      {"sequence": "GAATGGCCATGGACCGGTTTTCCCGGTAATCCGTATTTGCT (site GAATGGCCTGG)", "recombinant UMI read abundance (log10)": 0},
      {"sequence": "GAATGGCCATGGACCGGTTTTCCCGGTAATCCGTATTTGCT (site GAATGGCCTTG)", "recombinant UMI read abundance (log10)": 0},
      {"sequence": "GAATTCGCATGGACCGGTTTTCCCGGTAATCCGTATTTGCT (site GAATTCGCTAG)", "recombinant UMI read abundance (log10)": 2.87},
      {"sequence": "GACAAAACATGGACCGGTTTTCCCGGTAATCCGTATTTGCG (site GACAAAACTCG)", "recombinant UMI read abundance (log10)": 1.5},
      {"sequence": "GACAAAACATGGACCGGTTTTCCCGGTAATCCGTATTTGGC (site GACAAAACTGC)", "recombinant UMI read abundance (log10)": 0},
      {"sequence": "GACAAACCATGGACCGGTTTTCCCGGTAATCCGTATTTGGG (site GACAAACCTAC)", "recombinant UMI read abundance (log10)": 0.0248},
      {"sequence": "GACAAACCATGGACCGGTTTTCCCGGTAATCCGTATTTGGG (site GACAAACCTCC)", "recombinant UMI read abundance (log10)": 0}
    ]}
  ]
}
